Experimental data taken from paper PMC9227250, “Design, Synthesis and Cytotoxic Activity Evaluation of Newly Synthesized Amides-Based TMP Moiety as Potential Anticancer Agents over HepG2 Cells” (Molecules, 2022).

Columns and labels:
HepG2 cells [1] = experiment: MTT cytotoxicity assay against HepG2 cell line; assay type: cell-based; details: Homo sapiens, mean of three independent replicates ± SE
Protocol: (§1) Cytotoxic activity was carried out using MTT colorimetric antiproliferative assay to investigate the effect of the prepared molecules on HepG2 as well as HL-7702 cell lines. See Section 4.3.1 in Supplementary Data.
(§2) 4.3.1. Cytotoxic activity evaluation
(§3) To measure the cytotoxic actvity of the amide derivatives 2-6e in hepatocellular carcinoma (HepG2) cell line (ATCC Cat No. HB-8065) as well as normal human liver cell line HL-7702 (ATCC Cat. No. 77402), cell viability assay was assessed using MTT assay method. Cells at density of 1 x 104 were seeded in a 96-well plate at 37 °C for 24 h under 5% CO2. After incubation, the cells were treated with different concentrations of the test schiff bases 2-6e and incubated for 24 h, then 20 µl of MTT solution at 5 mg/mL was applied and incubated for 4 h at 37 °C . Dimethyl sulphoxide (DMSO) in volume of 100 µl was added to each well to dissolve the purple formazan that had formed. The color intensity of the formazan product, which represents the growth condition of the cells, is quantified by using an ELISA plate reader (EXL 800, USA) at 450 nm absorbance. The experimental conditions were carried out with at least three replicates, and the experiments were repeated at least three times. […]

HL-7702 cells = experiment: MTT cytotoxicity assay against normal liver cell line HL-7702; assay type: cell-based, human
Protocol: as §1, §2, §3

HDAC1 = biological target: T1, HDAC1 (Homo sapiens, UniProt Q13547); experiment: In vitro HDAC1 inhibition assay (ELISA kit); assay type: biochemical; details: HepG2 cells exposed 72 h
T1 construct: Briefly, HepG2 cells were trypsinized, counted and seeded; host or cells: HepG2
T1 sequence (Q13547 whole entry): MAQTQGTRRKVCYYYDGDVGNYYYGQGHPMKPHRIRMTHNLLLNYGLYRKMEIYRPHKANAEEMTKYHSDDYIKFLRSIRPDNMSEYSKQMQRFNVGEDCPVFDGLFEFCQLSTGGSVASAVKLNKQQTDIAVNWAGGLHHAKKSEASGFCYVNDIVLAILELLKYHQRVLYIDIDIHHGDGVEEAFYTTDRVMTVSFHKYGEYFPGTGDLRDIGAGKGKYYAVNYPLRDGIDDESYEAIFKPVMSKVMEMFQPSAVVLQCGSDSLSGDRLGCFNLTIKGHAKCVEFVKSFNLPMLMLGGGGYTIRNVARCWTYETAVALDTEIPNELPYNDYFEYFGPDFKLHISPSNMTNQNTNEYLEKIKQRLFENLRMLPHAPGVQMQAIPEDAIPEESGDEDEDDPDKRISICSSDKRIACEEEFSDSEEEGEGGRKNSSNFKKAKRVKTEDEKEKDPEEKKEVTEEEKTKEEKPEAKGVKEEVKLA
Protocol: (§4) See Section 4.3.2 in Supplementary Data.
(§5) 4.3.1. Cytotoxic activity evaluation […]
(§6) for 24 h under 5% CO2. After incubation, the cells were treated with different concentrations of the test schiff bases 2-6e and incubated for 24 h, then 20 µl of MTT […]
(§7) (DMSO) in volume of 100 µl was added to each well to dissolve the purple formazan that had formed. The color intensity of the formazan product, which represents the […]
(§8) USA) at 450 nm absorbance. The experimental conditions were carried out with at least three replicates, and the experiments were repeated at least three times.
(§9) 4.3.2. In vitro HDAC inhibition assay
(§10) HDAC isoforms (HDAC1, 2) were measured using ELISA assay kits {Mybiosource, Inc. [#MBS2020012 and #MBS2510971]} according to manufacturer's directions.
(§11) 96-well micro titer plates. Cells then were incubated in a humidified atmosphere at 37 °C for 24 h. The standards, the tested compounds, and the positive reference SAHA were diluted to designated concentrations. On the 96-well micro titer plates standard or sample was added to each well in 100 µL, and incubated at 37 °C for 2 h. The solution was aspirated and 100 µL of prepared. Detection Reagent A was added to […]
4.3.3. […]
(§12) The samples were immediately analyzed using Facs Calibur flow cytometer (Becton and Dickinson, Heidelberg, Germany). […]
(§13) immediately analyzed using FACS Calibur flow cytometer (Becton and Dickinson, […]

HDAC2 = biological target: T2, HDAC2 (Homo sapiens, UniProt Q92769); experiment: In vitro HDAC2 inhibition assay (ELISA kit); assay type: biochemical; details: HepG2 cells exposed 72 h
T2 construct: Briefly, HepG2 cells were trypsinized, counted and seeded; host or cells: HepG2
T2 sequence (Q92769 whole entry): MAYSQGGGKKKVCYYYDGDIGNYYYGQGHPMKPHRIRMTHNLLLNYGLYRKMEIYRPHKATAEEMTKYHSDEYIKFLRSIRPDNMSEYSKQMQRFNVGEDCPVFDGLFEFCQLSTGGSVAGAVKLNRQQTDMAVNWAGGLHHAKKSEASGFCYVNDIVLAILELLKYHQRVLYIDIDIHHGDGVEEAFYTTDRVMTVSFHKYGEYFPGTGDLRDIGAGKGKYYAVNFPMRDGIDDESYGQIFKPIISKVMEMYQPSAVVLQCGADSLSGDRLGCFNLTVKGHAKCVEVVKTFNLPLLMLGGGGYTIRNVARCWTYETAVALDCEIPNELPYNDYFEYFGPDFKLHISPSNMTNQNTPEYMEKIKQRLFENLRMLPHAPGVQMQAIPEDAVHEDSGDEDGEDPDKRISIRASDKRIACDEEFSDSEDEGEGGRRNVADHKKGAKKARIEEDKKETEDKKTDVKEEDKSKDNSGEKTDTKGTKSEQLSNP
Protocol: as §4, §5, §6, §7, §8, §9, §10, §11
4.3.3. […]
as §12, §13

β-tubulin = biological target: T3, β-tubulin (Homo sapiens, UniProt P07437+P68363); experiment: Tubulin polymerization inhibition assay (Human Beta-tubulin ELISA kit); assay type: biochemical
T3 construct: […]
T3 sequence (P07437 whole entry): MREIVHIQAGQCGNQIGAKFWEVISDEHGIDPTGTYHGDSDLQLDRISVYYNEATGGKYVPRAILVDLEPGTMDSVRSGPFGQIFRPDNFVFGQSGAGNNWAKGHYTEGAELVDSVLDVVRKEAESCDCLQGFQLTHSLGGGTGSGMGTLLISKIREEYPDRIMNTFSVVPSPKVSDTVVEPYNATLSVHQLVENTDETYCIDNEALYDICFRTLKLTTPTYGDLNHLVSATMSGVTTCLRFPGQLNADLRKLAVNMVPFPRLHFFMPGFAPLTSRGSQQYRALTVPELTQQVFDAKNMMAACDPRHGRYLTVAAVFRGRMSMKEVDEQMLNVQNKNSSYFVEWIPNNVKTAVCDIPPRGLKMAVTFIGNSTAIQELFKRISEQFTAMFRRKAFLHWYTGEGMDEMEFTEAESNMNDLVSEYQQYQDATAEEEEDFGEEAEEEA
T3 sequence (P68363 whole entry): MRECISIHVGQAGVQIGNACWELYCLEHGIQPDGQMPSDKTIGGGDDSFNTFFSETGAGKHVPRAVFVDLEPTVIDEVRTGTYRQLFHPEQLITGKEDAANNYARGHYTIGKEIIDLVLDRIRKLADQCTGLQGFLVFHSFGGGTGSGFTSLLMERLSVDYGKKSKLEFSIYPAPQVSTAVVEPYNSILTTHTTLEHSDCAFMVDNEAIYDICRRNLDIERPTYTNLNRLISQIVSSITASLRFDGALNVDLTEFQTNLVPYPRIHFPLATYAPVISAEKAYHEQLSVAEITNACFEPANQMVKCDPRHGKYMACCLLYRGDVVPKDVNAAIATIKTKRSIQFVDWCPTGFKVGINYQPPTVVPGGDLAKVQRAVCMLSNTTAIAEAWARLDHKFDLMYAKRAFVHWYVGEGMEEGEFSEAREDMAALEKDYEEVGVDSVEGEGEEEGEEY
Protocol: See Section 4.3.3 in Supplementary Data.
4.3.3. Tubulin inhibitions Assay […]
manufacturer’s instructions using # abcam Human Beta-tubulin simplestep ELISA Kit […]
Cell cycle analysis in HepG2 cells was investigated using fluorescent Annexin V - FITC/ PI detection kit (BioVision EZCellTM Cell Cycle Analysis Kit Catalog #K920) […]
After treatment, cells were washed twice in PBS, fixed in 70% ethanol, rinsed again with PBS. Cells were collected by centrifugation at 2000 rpm for 5 min and stained with DNA […]
The samples were immediately analyzed using Facs Calibur flow cytometer (Becton and Dickinson, Heidelberg, Germany).
Apoptosis in HepG2 cells was investigated using fluorescent Annexin V-FITC/ PI detection kit (BioVision Annexin V-FITC Apoptosis Detection Kit, Catalog #: K101) […]
as §13
Caspase 3/7 in HepG2 cells was investigated using CellEvent® Caspase 3/7 Green Detection Flow Cytometry Assay Kit. Caspase 3/7 activity in HepG2 cell line was […]
CellEvent® caspase 3/7 green detection flow cytometry assay kit according to manufacturer’s directions. […]
harvested and washed with ice cold PBS, and cell lysates were prepared and […]

HepG2 cells [2] = experiment: Cell cycle analysis by flow cytometry (PI); assay type: cell-based, human; details: HepG2, IC50 dose, 48 h; untreated control 7.28%
Text: Inhibition of tubulin assembly into microtubule and the antiproliferative effects are characterized by cell cycle arrest in the G2/M phase. […] The results in this study indicate that the newly prepared tetraamide derivative 6a cause cell cycle perturbation in the G2/M phase which is the main gauge of HDAC and tubulin inhibitors confirming the mode of action under study.
Cell cycle analysis in HepG2 cells was investigated using fluorescent Annexin V-FITC/ PI detection kit (BioVision EZCell^TM Cell Cycle Analysis Kit Catalog #K920) by flow cytometry assay. See Section 4.3.4 in Supplementary Data. […]
(§14) concentration that induces 50% of maximum inhibition of HDAC isoforms (IC50) […]
(§15) 4.3.3. Tubulin inhibitions Assay
(§16) Compound 6a was evaluated for its tubulin inhibitory activity according to manufacturer’s instructions using # abcam Human Beta-tubulin simplestep ELISA Kit […]
(§17) 4.3.4. Cell cycle analysis of compound 6a
Cell cycle analysis in HepG2 cells was investigated using fluorescent Annexin V - FITC/ PI detection kit (BioVision EZCellTM Cell Cycle Analysis Kit Catalog #K920) by flow cytometry assay. HepG2 cells at a density of 2 × 10^5 per well were treated with compound 6a at its IC50 concentration for 48 h. […] The samples were immediately analyzed using Facs Calibur flow cytometer (Becton and Dickinson, Heidelberg, Germany). […]

HepG2 cells [3] = experiment: Annexin V-FITC/PI apoptosis assay; assay type: cell-based, human; details: HepG2, IC50 concentration, 48 h
Protocol: G2/M blockade is often followed by cellular apoptosis. To quantify the percentage of cellular apoptosis induced by compound 6a in HepG2 cells, Annexin V fluorescein isothiocyanate versus propidium iodide (PI) dual staining analysis was performed after treatment with compound 6a at its IC50 concentration for 48 h. The results were presented graphically in Figure 5. […] Therefore, it can be concluded that compound 6a can be considered as apoptotic inducer.
Apoptosis in HepG2 cells was investigated using fluorescent Annexin V-FITC/ PI detection kit (BioVision Annexin V-FITC Apoptosis Detection Kit, Catalog #: K101) by flow cytometry assay. See Section 4.3.5 in Supplementary Data. […]
as §14, §15, §16, §17
Cell cycle analysis in HepG2 cells was investigated using fluorescent Annexin V - FITC/ PI detection kit (BioVision EZCellTM Cell Cycle Analysis Kit Catalog #K920) by flow cytometry assay. HepG2 cells at a density of 2 × 10^5 per well were treated with compound 6a at its IC50 concentration for 48 h. After treatment, cells were washed twice in PBS, fixed in 70% ethanol, rinsed again with PBS. Cells were collected by centrifugation at 2000 rpm for 5 min and stained with DNA fluorochrome PI for 15 min at 37 °C in dark. The samples were immediately analyzed using Facs Calibur flow cytometer (Becton and Dickinson, Heidelberg, Germany).
4.3.5. Apoptosis assay for compound 6a […]
Caspase 3/7 in HepG2 cells was investigated using CellEvent® Caspase 3/7 Green Detection Flow Cytometry Assay Kit. Caspase 3/7 activity in HepG2 cell line was detected in the presence of compounds 6a at its IC50 concentration (µM) using CellEvent® caspase 3/7 green detection flow cytometry assay kit according to manufacturer’s directions. […]

With `COc1cc(C(=O)NC(=Cc2ccc(Cl)cc2)C(=O)NNC(=O)/C(=C/c2ccco2)NC(=O)c2cc(OC)c(OC)c(OC)c2)cc(OC)c1OC` [Compound 6a, N-((1Z)-3-(2-(3-(4-chlorophenyl)-2-(3,4,5-trimethoxybenzamido)acryloyl)hydrazinyl)-1-(furan-2-yl)-3-oxoprop-1-en-2-yl)-3,4,5-trimethoxybenzamide] the IC50 (HepG2 cells [1]) was 650 ± 30 nM, the “selectivity ratio toward normal liver cell line” value (HL-7702 cells; HL-7702 (printed HL-7022) versus HepG2) was 14.8 and the IC50 (HL-7702 cells; Homo sapiens, L02, MTT assay, normal liver cell line HL-7702, mean of three independent replicates ± SE) was 9620 ± 230 nM. For the same compound, the IC50 (HDAC1) was 47 nM, the IC50 (HDAC2) was 86 nM and the “tubulin polymerization percentage inhibition” value (β-tubulin; ELISA for β-tubulin, compared with untreated control cells) was 66.39%. For the same compound, the IC50 (β-tubulin; β-tubulin ELISA) was 270 nM, the “cells in G2/M phase” value (HepG2 cells [2]) was 39.09% and the “late apoptotic cell percentage” value (HepG2 cells [3]; untreated control 0.13%) was 12.08%. For the same compound, the “early apoptotic cell percentage” value (HepG2 cells [3]; untreated control 0.52%) was 23.41%, the total apoptosis percentage (HepG2 cells [3]; untreated control 1.59%) was 37.51% and the melting point was 209 to 211 °C.
